Reference: publication PMC3353862
≈ marks a conversion by molar mass, not a printed value.

How the values were obtained:
[1] = system: E. coli modified with PMBN; experiment: Broth microdilution MIC testing; assay type: cell-based, Escherichia coli; conditions: for MIC E. coli +PMBP: E. coli modified with PMBN; for MIC: Escherichia coli, read-out: MIC E. coli +PMBP
[2] = system: bacterial protein synthesis (aminoacylation/translation system); experiment: aminoacylation/translation (A/T) assay; assay type: biochemical; conditions: for IC50: A/T assay, Table 1, read-out: IC50
E. coli tolC mutants = experiment: Broth microdilution MIC testing; assay type: cell-based, Escherichia coli; conditions: for MIC E. coli tolC: E. coli tolC mutants; for MIC: Escherichia coli, read-out: MIC E. coli tolC
H. influenzae = experiment: Broth microdilution MIC testing; assay type: cell-based, Haemophilus influenzae; conditions: for MIC H. flu: H. influenzae; for MIC: Haemophilus influenzae, read-out: MIC H. flu
S. pneumoniae = experiment: Broth microdilution MIC testing; assay type: cell-based, Streptococcus pneumoniae; conditions: for MIC S. pneumo: S. pneumoniae; for MIC: Streptococcus pneumoniae, read-out: MIC S. pneumo
panel of bacteria = experiment: Antibacterial activity against the panel of bacteria (MIC, overall); assay type: cell-based; conditions: Table 2; note: key: +: poor; ++: moderate; +++: good antibacterial activity
E. faecalis = experiment: Broth microdilution MIC testing; assay type: cell-based, Enterococcus faecalis; conditions: for MIC E. fae: E. faecalis; for MIC: Enterococcus faecalis, read-out: MIC E. fae
M. catarrhalis = experiment: Broth microdilution MIC testing; assay type: cell-based, Moraxella catarrhalis; conditions: for MIC: Moraxella catarrhalis
S. aureus = experiment: Broth microdilution MIC testing; assay type: cell-based, Staphylococcus aureus; conditions: for MIC: Staphylococcus aureus, read-out: MIC S. aureus

Structure (SMILES)	MIC E. coli +PMBP [1] [µg/mL]	IC50 [2] [µM]	MIC E. coli tolC (E. coli tolC mutants) [µg/mL]	MIC H. flu (H. influenzae) [µg/mL]	MIC S. pneumo (S. pneumoniae) [µg/mL]	MIC (antibacterial activity grade) (panel of bacteria)	MIC E. fae (E. faecalis) [µg/mL]	MIC M. cat (M. catarrhalis) [µg/mL]	MIC S. aureus (S. aureus) [µg/mL]	MIC [1] [µg/mL]	MIC (E. coli tolC mutants) [µg/mL]	MIC (H. influenzae) [µg/mL]	MIC (S. pneumoniae) [µg/mL]	MIC (S. aureus) [µg/mL]	MIC (E. faecalis) [µg/mL]	MIC (M. catarrhalis) [µg/mL]	fold reduction of potency/biochemical activity in the A/T assay ([2]; relative to 321521)
O=c1[nH]c(-c2ccccn2)nc2c1CN(Cc1cc(F)ccc1F)CC2 [Compound 323228]	16 (≈ 45.2 µM)	0.3	16 (≈ 45.2 µM)	4 (≈ 11.3 µM)	8 (≈ 22.6 µM)	++	64 (≈ 181 µM)	0.5 (≈ 1.41 µM)	–	–	–	–	–	–	–	–	–
O=c1[nH]c(-c2ccccn2)nc2c1CN(Cc1ccccc1N1CCCC1)CC2 [Compound 323195]	16 (≈ 41.3 µM)	1.5	32 (≈ 82.6 µM)	16 (≈ 41.3 µM)	32 (≈ 82.6 µM)	–	64 (≈ 165 µM)	2 (≈ 5.16 µM)	64 (≈ 165 µM)	–	–	–	–	–	–	–	–
O=c1[nH]c(-c2ccccn2)nc2c1CN(Cc1ccccc1Cl)CC2 [Compound 323219]	16 (≈ 45.3 µM)	3	8 (≈ 22.7 µM)	4 (≈ 11.3 µM)	4 (≈ 11.3 µM)	–	32 (≈ 90.7 µM)	≤0.12	16 (≈ 45.3 µM)	–	–	–	–	–	–	–	–
COc1cc(C)c(CN2CCc3nc(-c4ccccn4)[nH]c(=O)c3C2)cc1OC [Compound 323209]	64 (≈ 163 µM)	1.5	64 (≈ 163 µM)	64 (≈ 163 µM)	32 (≈ 81.5 µM)	–	> 128	4 (≈ 10.2 µM)	> 128	–	–	–	–	–	–	–	–
Oc1nc(-c2ccncc2)nc2c1CN(Cc1cccc(F)c1)CC2 [Compound 321386]	–	> 300	–	–	–	–	–	–	–	> 128	> 128	> 128	> 128	> 128	> 128	> 128	–
O=c1[nH]c(-c2cnccn2)nc2c1CN(Cc1ccc(Cl)cc1)CC2 [Compound 323354]	–	21.6	–	–	–	–	–	–	–	> 128	> 128	> 128	> 128	> 128	> 128	16 (≈ 45.2 µM)	tenfold
C=CCOc1ccccc1CN1CCc2nc(-c3ccccn3)[nH]c(=O)c2C1 [Compound 323194]	16 (≈ 42.7 µM)	3.4	16 (≈ 42.7 µM)	8 (≈ 21.4 µM)	8 (≈ 21.4 µM)	–	64 (≈ 171 µM)	1 (≈ 2.67 µM)	64 (≈ 171 µM)	–	–	–	–	–	–	–	–
Cn1c(=O)n(C)c2cc(CN3CCc4nc(-c5ccccn5)[nH]c(=O)c4C3)ccc21 [Compound 323213]	> 128	2.4	> 128	> 128	> 128	–	> 128	> 128	> 128	–	–	–	–	–	–	–	–
COc1ccc(CN2CCc3nc(-c4ccccn4)[nH]c(=O)c3C2)cc1Cn1cccn1 [Compound 323234]	64 (≈ 149 µM)	5.8	> 128	128 (≈ 299 µM)	128 (≈ 299 µM)	–	128 (≈ 299 µM)	16 (≈ 37.3 µM)	> 128	–	–	–	–	–	–	–	–
CCOCc1cc(CN2CCc3nc(-c4ccccn4)[nH]c(=O)c3C2)ccc1OC [Compound 323208]	64 (≈ 157 µM)	2.7	64 (≈ 157 µM)	64 (≈ 157 µM)	32 (≈ 78.7 µM)	–	> 128	4 (≈ 9.84 µM)	> 128	–	–	–	–	–	–	–	–
Cc1cc(CN2CCc3nc(-c4ccccn4)[nH]c(=O)c3C2)cc(C)c1O [Compound 323204]	> 128	2.1	> 128	32 (≈ 88.3 µM)	128 (≈ 353 µM)	–	> 128	64 (≈ 177 µM)	> 128	–	–	–	–	–	–	–	–
COc1ccc(CN2CCc3nc(-c4ccccn4)[nH]c(=O)c3C2)c(C)c1C [Compound 323202]	32 (≈ 85 µM)	4.3	8 (≈ 21.3 µM)	4 (≈ 10.6 µM)	4 (≈ 10.6 µM)	–	32 (≈ 85 µM)	0.25 (≈ 0.664 µM)	16 (≈ 42.5 µM)	–	–	–	–	–	–	–	–
O=C(Cc1ccc(Cl)cc1)N1CCc2nc(-c3ccccn3)[nH]c(=O)c2C1 [Compound 323369]	–	2.01	–	–	–	–	–	–	–	32 (≈ 84 µM)	64 (≈ 168 µM)	16 (≈ 42 µM)	64 (≈ 168 µM)	128 (≈ 336 µM)	64 (≈ 168 µM)	4 (≈ 10.5 µM)	–
